pIC50: −log10 of the molar value.
Experiments:
NAMPT [1] = target: T1, NAMPT (Homo sapiens, UniProt P43490); experiment: TR-FRET Binding Assay of NAMPT with PRPP; details: 2 nM NAMPT, 2 nM probe, 200 µM PRPP and 2.5 mM ATP, equilibrated 16 hours
Outline: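 TR-FRET probe displacement with 2 nM NAMPT, 2 nM probe and 1 nM Tb-anti-His antibody in the presence of 200 µM PRPP and 2.5 mM ATP, 2% DMSO (all final). Equilibrated 16 hours before reading to permit possible enzymatic modification of compounds.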

PC3 cells = experiment: NAMPT Cell Proliferation Assay (Cell Titer Glo); type: cell-based; details: Homo sapiens, PC-3, 120 h, incubated 5 days, cell viability
Outline: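 PC3 cells (500/well, RPMI with 10% heat-inactivated FBS) were exposed to 10-fold compound dilutions from […] for 5 days at 37 °C, 5% CO2. Viability was read with Cell Titer Glo; IC50 from sigmoidal fit of percent inhibition.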

NAMPT [2] = target: T1, NAMPT; experiment: Time-Resolved Fluorescence Resonance Energy Transfer (TR-FRET) Binding Assay of NAMPT; details: 6.8 nM NAMPT, 200 nM probe, equilibrated 3 hours, no substrates
Outline: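 Compound was mixed with enzyme, probe and antibody and equilibrated 3 h at room temperature. TR-FRET read at Ex 337 nm, Em 520/495 nm. Ratios were normalized to controls and fitted to a four-parameter logistic equation for IC50.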

T1 sequence (P43490 whole entry): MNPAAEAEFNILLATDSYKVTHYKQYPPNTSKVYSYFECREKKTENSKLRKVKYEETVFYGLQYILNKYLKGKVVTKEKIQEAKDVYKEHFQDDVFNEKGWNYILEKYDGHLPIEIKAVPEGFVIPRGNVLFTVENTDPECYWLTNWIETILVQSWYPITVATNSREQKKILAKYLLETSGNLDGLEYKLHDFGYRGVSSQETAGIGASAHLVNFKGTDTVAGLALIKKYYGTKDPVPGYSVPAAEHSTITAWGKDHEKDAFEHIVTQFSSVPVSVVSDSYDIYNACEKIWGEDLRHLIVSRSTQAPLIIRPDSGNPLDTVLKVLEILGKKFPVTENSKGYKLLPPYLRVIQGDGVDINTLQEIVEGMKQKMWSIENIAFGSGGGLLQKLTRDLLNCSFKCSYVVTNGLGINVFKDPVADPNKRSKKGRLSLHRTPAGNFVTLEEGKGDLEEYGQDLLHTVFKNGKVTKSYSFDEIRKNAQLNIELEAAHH

| SMILES | pIC50 (NAMPT [1]) | pIC50 (PC3 cells) | pIC50 (NAMPT [2]) |
| --- | --- | --- | --- |
| O=C(Nc1ccc(O[C@@H]2CCN(C(=O)C3CC3)C2)cc1)N1CC(c2cccnc2)C1 [Example 85, N-(4-{[(3R)-1-(cyclopropylcarbonyl)pyrrolidin-3-yl]oxy}phenyl)-3-(pyridin-3-yl)azetidine-1-carboxamide] | 9.49 | 7.31 | 6.93 |
| O=C(CC1CCOCC1)N1CC[C@H](Oc2ccc(NC(=O)N3CC(c4cccnc4)C3)cc2)C1 [Example 88, 3-(pyridin-3-yl)-N-(4-{[(3S)-1-(tetrahydro-2H-pyran-4-ylacetyl)pyrrolidin-3-yl]oxy}phenyl)azetidine-1-carboxamide] | 9.24 | 6.96 | 6.57 |
| CC[C@H](C)C(=O)N1CC[C@H](Oc2ccc(NC(=O)N3CC(c4cccnc4)C3)cc2)C1 [Example 98, N-[4-({(3S)-1-[(2S)-2-methylbutanoyl]pyrrolidin-3-yl}oxy)phenyl]-3-(pyridin-3-yl)azetidine-1-carboxamide] | 8.92 | 7.15 | 6.21 |
| CCCC(=O)N1CC[C@H](Oc2ccc(NC(=O)N3CC(c4cccnc4)C3)cc2)C1 [Example 99, N-(4-{[(3S)-1-butanoylpyrrolidin-3-yl]oxy}phenyl)-3-(pyridin-3-yl)azetidine-1-carboxamide] | 9.38 | 7.31 | 6.65 |
| CC(C)C(=O)N1CC(c2ccc(NC(=O)N3CC(c4cccnc4)C3)cc2)C1 [Example 101, N-{4-[1-(2-methylpropanoyl)azetidin-3-yl]phenyl}-3-(pyridin-3-yl)azetidine-1-carboxamide] | 9.20 | 7.17 | 6.84 |

Stronger by pIC50 (NAMPT [1]), values ahead:

| pIC50 (NAMPT [1]) | pIC50 (PC3 cells) | pIC50 (NAMPT [2]) | SMILES |
| --- | --- | --- | --- |
| 9.65 | 7.25 | 6.86 | O=C(Nc1ccc(O[C@@H]2CCN(C(=O)[C@@H]3CCCO3)C2)cc1)N1CC(c2cccnc2)C1 [Example 78, 3-(pyridin-3-yl)-N-[4-({(3R)-1-[(2S)-tetrahydrofuran-2-ylcarbonyl]pyrrolidin-3-yl}oxy)phenyl]azetidine-1-carboxamide] |
| 9.61 | 8.26 | 7.56 | CC[C@H](C)C(=O)N1CC[C@@H](Oc2ccc(NC(=O)N3CC(c4cccnc4)C3)cc2)C1 [Example 86, N-[4-({(3R)-1-[(2S)-2-methylbutanoyl]pyrrolidin-3-yl}oxy)phenyl]-3-(pyridin-3-yl)azetidine-1-carboxamide] |
| 9.71 | 6.16 | 6.39 | O=C(Nc1ccc(O[C@H]2CCN(C(=O)[C@@H]3CCCO3)C2)cc1)N1CC(c2cccnc2)C1 [Example 90, 3-(pyridin-3-yl)-N-[4-({(3S)-1-[(2S)-tetrahydrofuran-2-ylcarbonyl]pyrrolidin-3-yl}oxy)phenyl]azetidine-1-carboxamide] |
| 9.67 | 6.22 | 6.31 | CC(C)(O)C(=O)N1CC[C@H](Oc2ccc(NC(=O)N3CC(c4cccnc4)C3)cc2)C1 [Example 94, N-(4-{[(3S)-1-(2-hydroxy-2-methylpropanoyl)pyrrolidin-3-yl]oxy}phenyl)-3-(pyridin-3-yl)azetidine-1-carboxamide] |
| 9.51 | 7.56 | 6.97 | O=C(CC1CCOCC1)N1CC(c2ccc(NC(=O)N3CC(c4cccnc4)C3)cc2)C1 [Example 100, 3-(pyridin-3-yl)-N-{4-[1-(tetrahydro-2H-pyran-4-ylacetyl)azetidin-3-yl]phenyl}azetidine-1-carboxamide] |
| 9.54 | 7.17 | 7.02 | O=C(Nc1ccc(C2CN(C(=O)[C@@H]3CCCO3)C2)cc1)N1CC(c2cccnc2)C1 [Example 102, 3-(pyridin-3-yl)-N-(4-{1-[(2S)-tetrahydrofuran-2-ylcarbonyl]azetidin-3-yl}phenyl)azetidine-1-carboxamide] |
| 9.54 | 7.01 | 6.53 | O=C(Nc1ccc(C2CN(C(=O)[C@H]3CCCO3)C2)cc1)N1CC(c2cccnc2)C1 [Example 103, 3-(pyridin-3-yl)-N-(4-{1-[(2R)-tetrahydrofuran-2-ylcarbonyl]azetidin-3-yl}phenyl)azetidine-1-carboxamide] |

Reference: patent US9296723B2, “NAMPT inhibitors” (AbbVie Inc., priority 2012, dated 2016)
